Results reported in BindingDB's records for doi:10.1073/pnas.0509591102 (Mcgill University, 2005).

What was measured:
[1] = target: 5-hydroxytryptamine receptor 1A (Homo sapiens, UniProt P08908)
[2] = target: 5-hydroxytryptamine receptor 2A (Homo sapiens, UniProt P28223)
[3] = target: Potassium voltage-gated channel subfamily H member 2 (Homo sapiens, UniProt Q12809)
Cannabinoid receptor 2 = Cannabinoid receptor 2 (Homo sapiens, UniProt P34972)
[4] = target: 5-hydroxytryptamine receptor 6 (Homo sapiens, UniProt P50406)
[5] = target: Kappa-type opioid receptor (Homo sapiens, UniProt P41145)
Mu-type opioid receptor = Mu-type opioid receptor (Homo sapiens, UniProt P35372)
[6] = target: Sodium-dependent noradrenaline transporter (Homo sapiens, UniProt P23975)
Histamine H1 receptor = Histamine H1 receptor (Homo sapiens, UniProt P35367)
Histamine H2 receptor = Histamine H2 receptor (Homo sapiens, UniProt P25021)
Cannabinoid receptor 1 = Cannabinoid receptor 1 (Rattus norvegicus, UniProt P20272)
[7] = target: 5-hydroxytryptamine receptor 1B (Homo sapiens, UniProt P28222)
[8] = target: 5-hydroxytryptamine receptor 1D (Homo sapiens, UniProt P28221)
[9] = target: 5-hydroxytryptamine receptor 7 (Homo sapiens, UniProt P34969)
[10] = target: 5-hydroxytryptamine receptor 1E (Homo sapiens, UniProt P28566)
D(4) dopamine receptor = D(4) dopamine receptor (Homo sapiens, UniProt P21917)
[11] = target: Neuronal acetylcholine receptor subunit alpha-4 (Homo sapiens, UniProt P43681)
[12] = target: 5-hydroxytryptamine receptor 3A (Homo sapiens, UniProt P46098)
[13] = target: Beta-1 adrenergic receptor (Rattus norvegicus, UniProt P18090)
[14] = target: Muscarinic acetylcholine receptor M3 (Homo sapiens, UniProt P20309)
D(2) dopamine receptor = D(2) dopamine receptor (Homo sapiens, UniProt P14416)
[15] = target: Alpha-1A adrenergic receptor (Homo sapiens, UniProt P35348)
D(3) dopamine receptor = D(3) dopamine receptor (Rattus norvegicus, UniProt P19020)
D(1A) dopamine receptor = D(1A) dopamine receptor (Homo sapiens, UniProt P21728)
[16] = target: 5-hydroxytryptamine receptor 2C (Rattus norvegicus, UniProt P08909)
[17] = target: ATP-dependent translocase ABCB1 (Homo sapiens, UniProt P08183)
D(1B) dopamine receptor = D(1B) dopamine receptor (Homo sapiens, UniProt P21918)
[18] = target: Alpha-2B adrenergic receptor (Homo sapiens, UniProt P18089)
[19] = target: Alpha-2C adrenergic receptor (Homo sapiens, UniProt P18825)
[20] = target: Muscarinic acetylcholine receptor M2 (Homo sapiens, UniProt P08172)
[21] = target: Muscarinic acetylcholine receptor M1 (Homo sapiens, UniProt P11229)
[22] = target: Alpha-1B adrenergic receptor (Homo sapiens, UniProt P35368)
[23] = target: Muscarinic acetylcholine receptor M4 (Homo sapiens, UniProt P08173)
[24] = target: Neuronal acetylcholine receptor subunit alpha-2 (Homo sapiens, UniProt Q15822)
[25] = target: Neuronal acetylcholine receptor subunit alpha-3 (Homo sapiens, UniProt P32297)
[26] = target: Sigma non-opioid intracellular receptor 1 (Rattus norvegicus, UniProt Q9R0C9)
[27] = target: AP-2 complex subunit sigma (Rattus norvegicus, UniProt P62744)
[28] = target: Muscarinic acetylcholine receptor M5 (Homo sapiens, UniProt P08912)
[29] = target: Beta-2 adrenergic receptor (Rattus norvegicus, UniProt P10608)
[30] = target: Alpha-2A adrenergic receptor (Homo sapiens, UniProt P08913)

Measured: Ki

Chain of AP-2 complex subunit sigma (P62744 whole entry, looked up, one chain of several): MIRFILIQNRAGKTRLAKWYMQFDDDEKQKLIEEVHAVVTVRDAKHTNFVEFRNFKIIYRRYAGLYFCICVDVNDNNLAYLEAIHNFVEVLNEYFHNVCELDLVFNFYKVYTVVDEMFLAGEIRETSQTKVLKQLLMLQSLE
Chain of Sodium-dependent noradrenaline transporter (P23975 whole entry): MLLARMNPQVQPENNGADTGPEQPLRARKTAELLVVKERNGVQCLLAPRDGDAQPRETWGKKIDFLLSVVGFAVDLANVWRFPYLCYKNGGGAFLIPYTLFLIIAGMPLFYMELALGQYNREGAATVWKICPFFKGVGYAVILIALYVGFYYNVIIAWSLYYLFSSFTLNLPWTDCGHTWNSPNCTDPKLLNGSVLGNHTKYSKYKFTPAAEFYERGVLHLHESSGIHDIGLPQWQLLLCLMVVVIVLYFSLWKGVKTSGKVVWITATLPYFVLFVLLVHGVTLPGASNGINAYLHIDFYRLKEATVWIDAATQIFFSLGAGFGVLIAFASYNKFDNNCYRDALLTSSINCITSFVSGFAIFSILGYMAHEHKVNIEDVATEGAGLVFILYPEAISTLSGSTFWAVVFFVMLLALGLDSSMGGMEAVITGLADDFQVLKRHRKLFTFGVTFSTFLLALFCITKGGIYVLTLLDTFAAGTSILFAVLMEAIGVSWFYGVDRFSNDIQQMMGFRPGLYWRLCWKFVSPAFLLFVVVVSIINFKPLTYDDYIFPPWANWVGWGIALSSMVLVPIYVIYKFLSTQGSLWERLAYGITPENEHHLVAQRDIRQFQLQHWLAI
Chain of Muscarinic acetylcholine receptor M2 (P08172 whole entry): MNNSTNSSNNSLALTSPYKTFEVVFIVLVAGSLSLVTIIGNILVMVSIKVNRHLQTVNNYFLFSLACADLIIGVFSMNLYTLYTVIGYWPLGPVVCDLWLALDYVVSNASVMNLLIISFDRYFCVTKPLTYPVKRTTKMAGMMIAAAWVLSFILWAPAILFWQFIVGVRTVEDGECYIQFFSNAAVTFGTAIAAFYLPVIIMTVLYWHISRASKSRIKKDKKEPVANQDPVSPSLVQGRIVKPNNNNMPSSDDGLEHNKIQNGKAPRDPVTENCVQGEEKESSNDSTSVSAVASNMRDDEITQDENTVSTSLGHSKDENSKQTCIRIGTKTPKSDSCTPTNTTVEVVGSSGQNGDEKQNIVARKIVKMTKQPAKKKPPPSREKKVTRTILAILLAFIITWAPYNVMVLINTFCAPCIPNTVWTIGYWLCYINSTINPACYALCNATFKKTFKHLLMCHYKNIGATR
Chain of Alpha-1B adrenergic receptor (P35368 whole entry): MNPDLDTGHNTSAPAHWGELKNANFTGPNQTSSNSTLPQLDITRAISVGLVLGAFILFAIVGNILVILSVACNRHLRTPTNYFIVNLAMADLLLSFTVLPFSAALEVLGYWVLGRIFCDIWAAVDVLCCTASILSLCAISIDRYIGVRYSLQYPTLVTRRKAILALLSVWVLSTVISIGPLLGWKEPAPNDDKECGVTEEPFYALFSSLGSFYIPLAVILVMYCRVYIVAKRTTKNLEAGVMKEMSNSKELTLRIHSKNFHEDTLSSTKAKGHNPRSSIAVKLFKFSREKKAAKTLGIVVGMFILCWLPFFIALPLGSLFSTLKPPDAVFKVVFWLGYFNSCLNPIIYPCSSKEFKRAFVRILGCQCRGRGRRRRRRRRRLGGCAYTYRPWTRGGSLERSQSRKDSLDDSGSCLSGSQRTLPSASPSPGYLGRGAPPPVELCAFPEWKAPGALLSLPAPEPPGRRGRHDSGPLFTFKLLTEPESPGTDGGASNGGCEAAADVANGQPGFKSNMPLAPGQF
Chain of Alpha-2A adrenergic receptor (P08913 whole entry): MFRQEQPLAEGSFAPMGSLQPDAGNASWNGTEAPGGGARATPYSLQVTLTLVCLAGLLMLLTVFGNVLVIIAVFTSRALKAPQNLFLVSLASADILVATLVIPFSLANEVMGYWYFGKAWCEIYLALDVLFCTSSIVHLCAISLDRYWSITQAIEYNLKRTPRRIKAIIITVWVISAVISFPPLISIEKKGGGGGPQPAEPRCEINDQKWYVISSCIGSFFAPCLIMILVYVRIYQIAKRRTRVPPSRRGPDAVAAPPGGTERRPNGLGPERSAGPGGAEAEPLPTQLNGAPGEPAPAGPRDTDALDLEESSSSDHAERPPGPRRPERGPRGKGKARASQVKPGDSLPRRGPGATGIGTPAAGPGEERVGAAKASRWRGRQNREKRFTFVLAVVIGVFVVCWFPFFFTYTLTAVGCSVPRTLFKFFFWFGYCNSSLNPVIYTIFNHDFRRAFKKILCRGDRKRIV
Chain of Beta-1 adrenergic receptor (P18090 whole entry): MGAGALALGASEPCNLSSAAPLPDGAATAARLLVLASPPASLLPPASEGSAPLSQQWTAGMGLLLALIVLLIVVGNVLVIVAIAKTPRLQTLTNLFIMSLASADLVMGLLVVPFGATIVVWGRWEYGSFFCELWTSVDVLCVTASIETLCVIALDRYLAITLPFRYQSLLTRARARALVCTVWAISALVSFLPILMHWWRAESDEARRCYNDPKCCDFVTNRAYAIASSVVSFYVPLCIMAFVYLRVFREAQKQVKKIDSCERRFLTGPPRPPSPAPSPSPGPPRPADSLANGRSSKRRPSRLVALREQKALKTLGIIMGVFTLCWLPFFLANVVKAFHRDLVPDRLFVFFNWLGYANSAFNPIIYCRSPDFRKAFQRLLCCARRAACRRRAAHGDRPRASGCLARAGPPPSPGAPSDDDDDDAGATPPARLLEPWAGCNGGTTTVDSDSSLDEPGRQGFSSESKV
Chain of Alpha-1A adrenergic receptor (P35348 whole entry): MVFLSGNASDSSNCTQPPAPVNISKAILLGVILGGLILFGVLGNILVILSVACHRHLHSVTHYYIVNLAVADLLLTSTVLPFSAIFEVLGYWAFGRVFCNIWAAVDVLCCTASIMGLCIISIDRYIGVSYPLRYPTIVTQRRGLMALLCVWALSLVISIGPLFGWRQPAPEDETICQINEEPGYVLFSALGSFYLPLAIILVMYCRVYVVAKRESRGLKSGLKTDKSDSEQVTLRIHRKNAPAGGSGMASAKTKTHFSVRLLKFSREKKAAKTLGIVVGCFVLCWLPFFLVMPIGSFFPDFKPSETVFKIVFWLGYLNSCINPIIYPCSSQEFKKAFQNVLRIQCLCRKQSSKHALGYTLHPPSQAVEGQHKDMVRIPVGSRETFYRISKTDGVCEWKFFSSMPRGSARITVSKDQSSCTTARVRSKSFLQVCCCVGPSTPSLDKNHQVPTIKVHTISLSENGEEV
Chain of Alpha-2B adrenergic receptor (P18089 whole entry): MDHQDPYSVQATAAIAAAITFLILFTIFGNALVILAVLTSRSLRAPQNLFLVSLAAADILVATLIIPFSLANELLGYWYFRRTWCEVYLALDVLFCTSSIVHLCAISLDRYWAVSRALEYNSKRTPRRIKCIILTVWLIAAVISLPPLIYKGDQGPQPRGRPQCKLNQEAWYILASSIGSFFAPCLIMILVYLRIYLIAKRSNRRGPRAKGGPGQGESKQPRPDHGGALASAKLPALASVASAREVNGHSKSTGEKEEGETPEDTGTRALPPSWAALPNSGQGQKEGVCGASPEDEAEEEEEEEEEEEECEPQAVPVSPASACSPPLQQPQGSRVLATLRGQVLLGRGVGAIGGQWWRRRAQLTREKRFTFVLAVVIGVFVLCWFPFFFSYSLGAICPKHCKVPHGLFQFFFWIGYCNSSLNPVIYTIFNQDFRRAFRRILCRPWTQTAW
Chain of Kappa-type opioid receptor (P41145 whole entry): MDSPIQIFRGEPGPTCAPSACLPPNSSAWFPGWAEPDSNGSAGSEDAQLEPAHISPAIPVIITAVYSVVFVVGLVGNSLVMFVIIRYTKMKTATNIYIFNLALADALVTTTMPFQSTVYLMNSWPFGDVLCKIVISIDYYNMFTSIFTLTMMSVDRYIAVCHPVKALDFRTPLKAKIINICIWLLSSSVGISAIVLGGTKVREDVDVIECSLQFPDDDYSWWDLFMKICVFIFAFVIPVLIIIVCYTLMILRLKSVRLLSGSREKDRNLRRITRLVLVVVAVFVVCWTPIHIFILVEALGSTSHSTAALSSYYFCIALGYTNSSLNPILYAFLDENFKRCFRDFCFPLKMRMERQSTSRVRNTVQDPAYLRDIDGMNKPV
Chain of 5-hydroxytryptamine receptor 1D (P28221 whole entry): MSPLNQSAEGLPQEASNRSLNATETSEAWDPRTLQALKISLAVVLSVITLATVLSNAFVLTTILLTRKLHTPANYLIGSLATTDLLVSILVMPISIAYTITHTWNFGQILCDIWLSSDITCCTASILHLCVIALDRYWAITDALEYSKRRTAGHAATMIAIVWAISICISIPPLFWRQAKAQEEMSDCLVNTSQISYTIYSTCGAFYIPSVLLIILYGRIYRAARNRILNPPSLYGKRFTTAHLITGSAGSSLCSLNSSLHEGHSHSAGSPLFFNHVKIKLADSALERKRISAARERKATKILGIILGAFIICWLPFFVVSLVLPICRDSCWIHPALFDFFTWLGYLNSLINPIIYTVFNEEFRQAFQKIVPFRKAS
Chain of D(3) dopamine receptor (P19020 whole entry): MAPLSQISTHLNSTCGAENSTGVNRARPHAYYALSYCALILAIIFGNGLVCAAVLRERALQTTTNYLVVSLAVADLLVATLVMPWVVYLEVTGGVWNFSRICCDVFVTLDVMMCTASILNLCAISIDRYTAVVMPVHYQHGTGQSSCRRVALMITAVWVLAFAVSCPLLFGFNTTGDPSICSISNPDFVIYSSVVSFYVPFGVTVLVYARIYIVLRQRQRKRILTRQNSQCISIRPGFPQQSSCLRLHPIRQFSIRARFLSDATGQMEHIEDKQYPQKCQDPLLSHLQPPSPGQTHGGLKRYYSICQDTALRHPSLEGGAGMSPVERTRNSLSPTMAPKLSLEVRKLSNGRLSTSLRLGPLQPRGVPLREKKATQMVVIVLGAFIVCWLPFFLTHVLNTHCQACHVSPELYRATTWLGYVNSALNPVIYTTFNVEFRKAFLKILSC

NC(=O)c1cccc(-c2cccc(OC(=O)NC3CCCCC3)c2)c1 [URB 597]
> 10 µM: all assays above
